Laboratory results taken from patent US20100092427A1, “Pyridinone Diketo Acids: Inhibitors of HIV Replication in Combination Therapy” (THE UNIVERSITY OF GEORGIA RESEARCH FOUNDATION, priority 2006, published 2010).
Like-named read-outs stand apart in the source and are kept apart here.

Experiments:
[1] = system: HIVNL4-3; test: anti-HIV data in PBMC for the clinical isolate HIVNL4-3; assay type: cell-based
[2] = system: PBMC; test: cytotoxicity (CC95) in PBMC, same anti-HIV study
[3] = physchem; conditions: buffer, pH 7.4
[4] = in vitro; conditions: human, pooled liver microsomes

Row | Structure (SMILES) | EC95 ([1]; AZT in the same study) [nM] | CC95 [2] [nM] | EC95 [1] [nM] | half-life [3] [h] | half-life [4] [h]
1 | Cc1cn([C@H]2C[C@H](N=[N+]=[N-])[C@@H](CO)O2)c(=O)[nH]c1=O [AZT, Zidovudine, reference compound] | 9.42 | > 1000 | – | – | –
2 | O=C(O)/C(O)=C/C(=O)c1cc(Cc2ccccc2)cn(Cc2ccccc2)c1=O [Compound 8] | – | > 200000 | 610 | > 41 | > 6
